Experimental findings from patent US20020127605A1 (priority 2000, published 2002) are described below.

human recombinant CyPA, sequence (P62937 whole entry): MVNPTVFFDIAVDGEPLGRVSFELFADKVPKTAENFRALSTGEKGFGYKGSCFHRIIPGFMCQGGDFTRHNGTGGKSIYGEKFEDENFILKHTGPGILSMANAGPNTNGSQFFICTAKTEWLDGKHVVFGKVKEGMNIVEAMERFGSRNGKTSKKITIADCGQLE

In the assay the target is human recombinant CyPA (Homo sapiens, UniProt P62937). In words: Semiautomated microtiter plate assay of rotamase activity inhibition. Conditions: 30 minute preincubation at 4° C., read-out: IC50 (rotamase inhibition, modified plate reader assay). It counts as biochemical. The procedure:
Semiautomated Assay of Rotamase Activity Inhibition: Rotamase inhibition was determined using a semiautomated microtiter plate assay modification of the above described assay [see Küillertz et al., Clin. Chem. 44, 502-508 (1998)]. All dilutions of CyPA, peptide substrate, and chymotrypsin were made in 35 mM ice-cold HEPES buffer. Fifty μL of CyPA solution were added to 50 μL of peptide substrate solution (Phe-Pro-Phe p-nitroanilide, 0.16 mg/ml) in a glass microtiter well plate (the concentration of human recombinant CyP being adjusted so that the reaction rate is increased by a factor of 3 as compared to an uncatalyzed control reaction wherein the peptide substrate is degraded by chymotrypsin alone, in the absence of CyPA and test compound). Using a Beckman Multimek™ 96 automated 96-channel pipettor, 5 μL of test compound solution, or a DMSO blank, were added to each well for a 30 minute preincubation at 4° C. One hundred μL of chymotrypsin solution (1 mg/mL) were added to each well and the absorbance at 390 nm versus time was monitored for 9-10 minutes using a BioRad Ultramark plate reader maintained at 4° C. and the rate constants were determined from the absorbance versus time data files. The cyclophilin utilized was a human recombinant CyPA [Yoo et al., J. Mol. Biol., 269 (1997) 780-95].
IC50 values which were obtained for representative compounds using this modified plate reader assay of rotamase inhibition are given in the following Table II: […]
For `O=C(CCCCc1ccccc1)Nc1cccc(/C=N/NC(=S)Nc2ccc(Cl)c(Cl)c2)c1` [Compound 39, N-{3-[(1E)-2-aza-2-({[(3,4-dichlorophenyl)amino]thioxomethyl}amino)vinyl]phenyl}-5-phenylpentanamide], the 50% inhibitory concentration (IC50) (usually the concentration that inhibits the measured activity by half) is 1410 nM. Then `O=C(CCCCc1ccccc1)Nc1cccc(-c2nnc(Nc3ccc(Cl)c(Cl)c3)s2)c1` [Compound 40A, 5-Phenyl-pentanoic acid {3-[5-(3,4-dichloro-phenylamino)-[1,3,4]thiadiazol-2-yl]-phenyl}-amide], with 2800 nM. Regarding `O=C(CCCCc1ccccc1)Nc1cccc(-c2nnc(Nc3ccc(Cl)c(Cl)c3)o2)c1` [Compound 40B, 5-Phenyl-pentanoic acid {3-[5-(3,4-dichloro-phenylamino)-[1,3,4]oxadiazol-2-yl]-phenyl}-amide], the half-maximal inhibitory concentration (IC50) stood at 883 nM.

On to `O=C(CCCCc1ccccc1)Nc1cccc(C(=O)NNC(=S)NC23CC4CC(CC(C4)C2)C3)c1` [Compound 41, 1-[(6-Phenyl-1-aza-2-oxo)hexyl]-3-{[(adamant-1-yl)-1-oxo-2,3,5-triaza-4-thio]pentyl}-benzene], for which the IC50 amounted to 5190 nM. On to `O=C(CCCCc1ccccc1)Nc1cccc(NC(=O)CC(=O)Nc2ccc(Cl)c(Cl)c2)c1` [Compound 42, 1-[(6-Phenyl-1-aza-2-oxo)hexyl]-3-{[5-(3,4-dichlorophenyl)-1,5-diaza-2,4-oxo]pentyl}-benzene], for which the half-maximal inhibitory concentration (IC50) worked out at 6090 nM. As to `O=C(CCCCc1ccccc1)Nc1ccc(C(=O)NNC(=S)Nc2ccc(Cl)c(Cl)c2)cc1` [Compound 43, 1-{4-[(5-Phenyl)pentanoylamino]benzoyl}-4-(3,4-dichlorophenyl)thiosemicarbazide], the IC50 came to 1570 nM.

On to `O=C(CCCCCc1cccc(C(F)(F)F)c1)Nc1cccc(S(=O)(=O)NC(=S)Nc2ccc(Cl)c(Cl)c2)c1` [Compound 45], for which the half-maximal inhibitory concentration (IC50) was 130 nM. For “L-N-[3-(6-Phenylhexanoylamino)benzoyl]proline 3,4-dichlorobenzamide [Compound 36]”, the concentration for half-maximal inhibition (IC50) was 9050 nM.
